Source: ChEMBL document CHEMBL4400555, “Structure-activity relationships of trichothecenes against COLO201 cells and Cochliobolus miyabeanus: The role of 12-epoxide and macrocyclic moieties” (Bioorg Med Chem Lett, 2019)
Calls of active or inactive are those of the source. The rule behind the calls is not given here.

How the values were obtained:
Bipolaris oryzae [1] = test: Antifungal activity against Cochliobolus miyabeanus 131004 assessed as zone of inhibition at 10 ug/disk after 4 days by paper disk method; format: functional; settings: Bipolaris oryzae, 131004, 96 h; read-out: IZ
Bipolaris oryzae [2] = test: Antifungal activity against Cochliobolus miyabeanus 131004 assessed as zone of inhibition at 100 ug/disk after 4 days by paper disk method; format: functional; settings: Bipolaris oryzae, 131004, 96 h; read-out: IZ
Bipolaris oryzae [3] = test: Antifungal activity against Cochliobolus miyabeanus 131004 assessed as zone of inhibition at 500 ug/disk after 4 days by paper disk method; format: functional; settings: Bipolaris oryzae, 131004, 96 h; read-out: IZ
COLO 201 = test: Antiproliferative activity against human COLO201 cells after 24 hrs by WST-1 assay; format: functional, cell-based
Bipolaris oryzae [4] = test: Antifungal activity against Cochliobolus miyabeanus 131004 assessed as zone of inhibition at 50 ug/disk after 4 days by paper disk method; format: functional, organism-based

Structure (SMILES)	zone of inhibition at 10 µg/disc (Bipolaris oryzae [1]) [mm]	IC50 (COLO 201; Homo sapiens, COLO 201, 24 h) [µM]	IC50 (COLO 201; colo 201) [µM]	further results
C=C1[C@H]2C[C@@H](OC(C)=O)[C@]1(C)[C@@]1(C)CCC(C)=C[C@H]1O2	0	420	–	zone of inhibition at 100 µg/disc (Bipolaris oryzae [2]): 0 mm; zone of inhibition at 500 µg/disc (Bipolaris oryzae [3]): 0 mm
C=C1[C@H]2C[C@H]3OC(=O)/C=C\C=C\[C@@H]4O[C@@H](O[C@H]4C)[C@H](O)/C(C)=C/C(=O)OC[C@@]4(CCC(C)=C[C@H]4O2)[C@]13C	0	50	–	zone of inhibition at 100 µg/disc (Bipolaris oryzae [2]): 0 mm; zone of inhibition at 500 µg/disc (Bipolaris oryzae [3]): 0 mm
CC1=C[C@H]2O[C@@H]3C[C@H]4OC(=O)/C=C\C=C\[C@@H]([C@@H](C)O)OCC/C(C)=C/C(=O)OC[C@@]2(CC1)[C@]4(C)[C@]31CO1	–	–	47	–
C=C1[C@H]2C[C@H]3OC(=O)/C=C\C=C\[C@@H]([C@@H](C)O)OCC/C(C)=C/C(=O)OC[C@@]4(CCC(C)=C[C@H]4O2)[C@]13C	0	51	–	zone of inhibition at 100 µg/disc (Bipolaris oryzae [2]): 0 mm; zone of inhibition at 500 µg/disc (Bipolaris oryzae [3]): 0 mm
CC(=O)O[C@@H]1C[C@H]2O[C@@H]3C=C(C)CC[C@]3(C)[C@]1(C)[C@]21CO1	–	–	123	–
CC1=C[C@H]2O[C@@H]3C[C@H]4OC(=O)/C=C\C=C\[C@@H]5O[C@@H](O[C@H]5C)[C@H](O)/C(C)=C/C(=O)OC[C@@]2(CC1)[C@]4(C)[C@]31CO1	–	–	42	–
CC1=C[C@H]2O[C@@H]3C[C@H]4OC(=O)/C=C\C=C\[C@@H]5O[C@H](C/C(C)=C/C(=O)OC[C@@]2(C[C@@H]1O)[C@]4(C)[C@]31CO1)O[C@H]5C	–	–	51	–
CC1=C[C@H]2O[C@@H]3[C@H](O)C[C@](C)([C@@]2(CO)[C@H](O)C1=O)[C@]31CO1 [DEOXYNIVALENOL]	–	–	86	–
C=C1[C@H]2CC[C@]1(C)[C@@]1(CO)[C@H](O)C(=O)C(C)=C[C@H]1O2	0	> 700	–	inhibition zone (IZ) (Bipolaris oryzae [4]): inactive
CC1=C[C@H]2O[C@@H]3C[C@H]4OC(=O)/C=C\C=C\[C@@H]5O[C@H](C/C(C)=C/C(=O)OC[C@@]2(CC1)[C@]4(C)[C@]31CO1)O[C@H]5C	–	–	82	–
CC(=O)O[C@H]1C[C@@]23COC(=O)/C=C(\C)C[C@@H]4O[C@@H](C)[C@H](/C=C/C=C\C(=O)O[C@@H]5C[C@@H](O[C@@H]2C=C1C)[C@@]1(CO1)[C@]53C)O4	–	–	46	–
